Measured values reported in US7625879B2 (priority 1998, dated 2009).
Counter-ions that a name gives are not always drawn.

Tests used:
Tγ9δ2 lymphocytes [1] = assay: Stimulation of the proliferation of Tγ9δ2 lymphocytes in a culture; assay type: cell-based, human; conditions: effective dose at 50% of the maximum polyclonal lymphocyte amplification effect; 8 days culture with hIL-2; read-out: ED 50% (the source's name)
Description: 20 microliters of the aqueous solution of the compound according to the invention adjusted to the final concentration specified in the test are added to an in vitro culture of 10^6 total T lymphocytes in 1 ml, separated from the blood of a healthy adult human donor and initially containing 1-5% of Tγ9δ2 lymphocytes, in an adequate culture medium (RPMI 1640+10% of inactivated human serum and 50 U/ml of human interleukin-2 (hIL-2)). After culturing for 4 days, 50 U of dIL-2 are added per milliliter of culture medium. After 8 days, the cells are counted, collected, washed with phosphate buffer, and the Tγ9δ2 type cells are detected in the culture by labeling with conventional commercial reagents (fluorescein-labeled monoclonal antibodies) and the proportion thereof determined by flux cytometry analysis. The parameter measured is either the change in the proportion of or the increase in the number of Tγ9δ2 cells in cultures in the presence of the compound according to the invention in comparison with cultures not containing a compound according to the invention.

Tγ9δ2 lymphocytes [2] = assay: Reactivity ex vivo of Tγ9δ2 lymphocytes from injected macaques in culture; assay type: cell-based, Macaca fascicularis
Description: (§1) These tests are performed on monkeys of the species Macaca fascicularis (males weight 3-4 kg) anaesthetized with 15 mg/kg Zoletil (zolazepam)®/0.01 mg/kg atropine. The batches of BrHPP (in NA^+ form) are subjected to prior purity testing (>99%), quantified and have been tested in accordance with the pyrogenicity tests of Example 12. The animals are injected by rapid intravenous injection (2-5 minutes into the saphenous vein) with 0.1 mg/kg of BrHPP (i.e. 0.3-0.4 mg per animal) diluted in 10 ml of Ringer lactate. Each animal also receives a subcutaneous injection of 90,000 units of interleukin-2 (IL-2). These injections are performed once daily for four days. Control animals receive only the subcutaneous injection of IL-2 once daily for four days.
(§2) The proportion of Tγ9δ2 lymphocytes in total lymphocytes in the various animals is compared in the following three situations: • in the animal's bloodstream, • in a culture of total lymphocytes taken from the animal receiving only BrHPP, • in a culture of total lymphocytes talken from the animal receiving BrHPP+IL-2.

Tγ9δ2 lymphocytes [3] = assay: In vivo bioactivity in the macaque: Tγ9δ2 lymphocytes in the blood; parameters: species or system Macaca fascicularis; conditions: for % of Tγ9δ2 lymphocytes in the blood in vivo (7 days after injection): animals injected BrHPP only
Description: as §1, §2

[4] = Pyrogenicity in rabbits (ISO-10993-11, USP XXIII); assay type: in vivo
Description: This test is performed in accordance with a protocol specified by standards ISO-10993-11 (1993) and USP XXIII. […] Temperature is taken every 30 minutes for 3 hours starting 30 minutes after the injection.

[5] = Toxicity of BrHPP (sodium salt) in mice, intravenous injection; assay type: in vivo
Description: Eight 30 g mice received an intravenous injection (caudal vein) of 300 μl of PBS buffer containing 1 mg of BrHPP (sodium salt). […] Toxicity is thus less than 12.5% for a dose of 33.4 mg of BrHPP (Na^+) per kilogram of animal body weight.

human Tγ9δ2 lymphocytes = conditions: cited from earlier work
Tγ9δ2 lymphocyte clone = assay: Stimulation of induced cytotoxicity of a Tγ9δ2 lymphocyte clone
[6] = animals injected BrHPP only, twice (1 injection + 1 booster)

In the case of “3-(bromomethyl)-3-butanol-1-yl diphosphate [BrHPP]”, the EC50 (Tγ9δ2 lymphocytes [1]) is reported as 10 nM, the “Reactivity ex vivo of Tγ9δ2 lymphocytes (% after 10 days' culturing in vitro), Amplification by 40 nM BrHPP” value (Tγ9δ2 lymphocytes [2]; animals injected BrHPP + IL-2) is reported as 10% and the “Reactivity ex vivo of Tγ9δ2 lymphocytes (% after 10 days' culturing in vitro), Amplification by 40 nM BrHPP + IL-2” value (Tγ9δ2 lymphocytes [2]; animals injected BrHPP + IL-2) is reported as 50.0%. For the same compound, the “Reactivity ex vivo of Tγ9δ2 lymphocytes (% after 10 days' culturing in vitro), Amplification by 40 nM BrHPP” value (Tγ9δ2 lymphocytes [2]; animals injected BrHPP only) was 1%, the “Reactivity ex vivo of Tγ9δ2 lymphocytes (% after 10 days' culturing in vitro), Amplification by 40 nM BrHPP” value (Tγ9δ2 lymphocytes [2]; [6]) was 1% and the “Reactivity ex vivo of Tγ9δ2 lymphocytes (% after 10 days' culturing in vitro), Amplification by 40 nM BrHPP + IL-2” value (Tγ9δ2 lymphocytes [2]; [6]) was 40.2%. For the same compound, the “% of Tγ9δ2 lymphocytes in the blood in vivo (7 days after injection)” value (Tγ9δ2 lymphocytes [3]; i.v. 0.1 mg/kg, Na+ form) was ~1%, the “% of Tγ9δ2 lymphocytes in the blood in vivo (7 days after injection)” value (Tγ9δ2 lymphocytes [3]; twice (1 injection + 1 booster)) was ~1% and the “effect on the monkey's Tγ9δ2 lymphocytes in vivo” value (Tγ9δ2 lymphocytes [3]; intravenous injection of BrHPP in the presence of subcutaneous IL-2) was “preactivates these same cells and brings about the growth thereof in vivo”. For the same compound, the “effect on the monkey's Tγ9δ2 lymphocytes in vivo” value (Tγ9δ2 lymphocytes [3]; single or repeated intravenous injection of BrHPP alone) was “preactivates the monkey's Tγ9δ2 lymphocytes, but does not stimulate the growth thereof in the animal”.
Work on “3-(chloromethyl)-3-butanol-1-yl diphosphate [CIHPP]” yielded an EC50 (Tγ9δ2 lymphocytes [1]) of 100 nM.
In the case of “3-(iodomethyl)-3-butanol-1-yl diphosphate [IHPP]”, the EC50 (Tγ9δ2 lymphocytes [1]) is reported as 3 nM.
With CC(O)(CBr)CCOP(=O)(O)OP(=O)(O)O (stereo not shown) [BrHPP (sodium salt), 3-(bromomethyl)-3-butanol-1-yl diphosphate] the side-effect on injection ([4]; 400 μg/ml solution, i.v.) was “muscle tremors”, the “reaction to the injection” value ([4]; solution diluted 1:40 to 10 μg/ml, one rabbit, in 19 minutes) was “no reaction to the injection” and the “febrile reaction (increase in temperature greater than 0.5° C.)” value ([4]; three rabbits, i.v. 400 μg/ml, 10 ml per kilogram, 3 hours) was “Only one rabbit exhibited an increase in temperature of greater than 0.5 °C”. For the same compound, the Toxicity ([5]; dose of 33.4 mg per kilogram of animal body weight, i.v.) was “less than 12.5%”, the “signs of shock or pyrogenicity” value ([5]; eight 30 g mice, i.v. caudal vein, 1 mg in 300 μl PBS) was “No sign of shock or pyrogenicity” and the “variation in the weight of the mice” value ([5]; i.v. 1 mg per 30 g mouse, during the study) was “no significant variation”. The “mice still alive after 30 days” value ([5]; of eight mice, i.v. 1 mg per 30 g mouse) was 8 mice.
For CC(O)(CBr)CCOP(=O)(O)OP(=O)(O)OP(=O)(O)O (stereo not shown) [BrHPPP, 3-(bromomethyl)-3-butanol-1-yl triphosphate], the EC50 (Tγ9δ2 lymphocytes [1]) was 120 nM.
For CC(O)(CI)CCOP(=O)(O)OP(=O)(O)OP(=O)(O)O (stereo not shown) [IHPPP, 3-(iodomethyl)-3-butanol-1-yl triphosphate], the EC50 (Tγ9δ2 lymphocytes [1]) was 70 nM.
For CC(O)(CBr)CCOP(=O)(O)OP(=O)(O)OP(=O)(O)OCCC(C)(O)CBr (stereo not drawn) [di-BrHTP, α,γ di-[3-(bromomethyl)-3-butanol-1-yl] triphosphate], the EC50 (Tγ9δ2 lymphocytes [1]) was 3000 nM.
For isopentenyl pyrophosphate [IPP], the “minimum active concentration (no activity demonstrated below)” value (human Tγ9δ2 lymphocytes; best results obtained, prior art compounds) is listed as ≥ 3 µM, the “minimum active concentration relative to natural phosphoantigens” value (human Tγ9δ2 lymphocytes) is listed as ~1000 times higher and the EC50 (Tγ9δ2 lymphocytes [1]) is listed as 3000 nM. For the same compound, the “concentration at which active in induced cytotoxicity test” value (Tγ9δ2 lymphocyte clone; Tγ9δ2 lymphocyte clone, decreasing concentrations, FIG. 2) was ~3000 nM and the “active concentration relative to the compounds according to the invention” value (Tγ9δ2 lymphocyte clone; induced cytotoxicity test) was ~300 times higher.
Compound “α,γ di-[3-(iodomethyl)-3-butanol-1-yl] triphosphate [di-IHTP]” has an EC50 (Tγ9δ2 lymphocytes [1]) of 7000 nM.
